# Active and inactive are the calls of the source. The rule behind the calls is not given here.
# Tested on: GENE-TOX genotoxicity assays, various organisms and cells
# Experiment: GENE-TOX mutagenicity studies
# Details: for call: Assay Type: In vivo carcinogenicity studies, Assay Code: CCG+
# [1] = Species/Cell Type: Drosophila melanogaster, Assay Type: Sex-linked recessive lethal gene mutation, Assay Code: SRL+, Evaluation Type: Evaluation A (Pre-1980)
# [2] = Species/Cell Type: Escherichia coli polA (W3119 vs P3478), Assay Type: Rec-assay, DNA effects (bacterial DNA repair), Assay Code: RE1+, Evaluation Type: Evaluation A (Pre-1980)
# [3] = Species/Cell Type: Nonhuman, Evaluation Type: Evaluation A (Pre-1980)
# [4] = Species/Cell Type: Salmonella typhimurium, Assay Type: Forward and reverse gene mutation, host-mediated assay, Assay Code: HMA+, Evaluation Type: Evaluation A (Pre-1980)
# [5] = Species/Cell Type: Drosophila melanogaster, Sex: Male, Assay Type: Heritable translocation test, chromosome aberrations, Assay Code: DHT+, Evaluation Type: Evaluation A (Pre-1980)
# [6] = Species/Cell Type: Mammalian polychromatic erythrocytes, Assay Type: Micronucleus test, chromosome aberrations, Assay Code: MNTT, Evaluation Type: Evaluation B (Post-1980)
# [7] = Species/Cell Type: Mammalian polychromatic erythrocytes, Assay Type: Micronucleus test, chromosome aberrations, Assay Code: MNT+, Evaluation Type: Evaluation B (Post-1980)
# [8] = Species/Cell Type: Mammalian polychromatic erythrocytes, Assay Type: Micronucleus test, chromosome aberrations, Assay Code: MNTT, Evaluation Type: Evaluation A (Pre-1980)
# [9] = Species/Cell Type: Nonhuman, Assay Type: Sister-chromatid exchange (SCE) in vitro, Assay Code: SC2+D, Dose Response: With dose response, Evaluation Type: Evaluation B (Post-1980)
# [10] = Species/Cell Type: Salmonella typhimurium (one or more of the five standard strains: TA98, TA100, TA1535, TA1537, and TA1538), Assay Type: Histidine reverse gene mutation, Ames assay, Assay Code: SAL-, Evaluation Type: Evaluation A (Pre-1980)
# [11] = Species/Cell Type: Nonhuman, Assay Type: Sister-chromatid exchange (SCE) in vitro, Assay Code: SC2T, Evaluation Type: Evaluation B (Post-1980)
# [12] = Species/Cell Type: Mouse, Sex: Male, Assay Type: Sperm morphology, Assay Code: SPI+, Evaluation Type: Evaluation A (Pre-1980)
# [13] = Species/Cell Type: Salmonella typhimurium (one or more of the five standard strains: TA98, TA100, TA1535, TA1537, and TA1538), Assay Type: Histidine reverse gene mutation, Ames assay, Assay Code: SALT, Evaluation Type: Evaluation A (Pre-1980)
# [14] = Species/Cell Type: Allium cepa, Assay Type: Chromosome aberrations, Assay Code: ALC-, Evaluation Type: Evaluation A (Pre-1980)
# [15] = Species/Cell Type: Human, Assay Type: Sister-chromatid exchange (SCE) in vitro, Assay Code: SC1+, Evaluation Type: Evaluation B (Post-1980)
structure (smiles),measurement,setting,value
O=c1[nH]cc(N(CCCl)CCCl)c(=O)[nH]1,mutagenic call,[1],active; positive
same,mutagenic call,[2],active; positive
same,mutagenic call,"Species/Cell Type: Fischer rat embryo (RLV/1706) cells, Assay Type: Cell transformation, viral enhanced, Assay Code: CTR+, Evaluation Type: Evaluation A (Pre-1980)",active; positive
same,mutagenic call,"Species/Cell Type: Mouse (BALB/c-3T3) cells, Assay Type: Cell transformation, Assay Code: CTB-, Evaluation Type: Evaluation A (Pre-1980)",inactive; negative
same,mutagenic call,"Species/Cell Type: Mouse lymphoma (L5178Y) cells, Assay Type: Forward gene mutation at the thymidine kinase (TK) locus, chromosome aberrations, Assay Code: L51+, Evaluation Type: Evaluation A (Pre-1980)",active; positive
same,call,[3],active; positive
same,mutagenic call,"Species/Cell Type: Saccharomyces cerevisiae, Assay Type: Mitotic recombination or gene conversion, Assay Code: YEH+, Evaluation Type: Evaluation A (Pre-1980)",active; positive
same,mutagenic call,"Species/Cell Type: Salmonella typhimurium (one or more of the five standard strains: TA98, TA100, TA1535, TA1537, and TA1538), Assay Type: Histidine reverse gene mutation, Ames assay, Assay Code: SAL+, Evaluation Type: Evaluation A (Pre-1980)",active; positive
same,mutagenic call,[4],active; positive
CSc1ccc2c(c1)N(CCC1CCCCN1C)c1ccccc1S2 (configuration not stated),mutagenic call,[1],active; positive
same,mutagenic call,[5],active; positive
same,mutagenic call,[6],no conclusion
O=C(O)CC(O)(CC(=O)O)C(=O)O,mutagenic call,[7],active; positive
CC1C[C@@H]2CCC[C@H]2[C@@H]2CCC3CCCC[C@@H]3[C@@H]12 (some centres not stated),mutagenic call,"Species/Cell Type: Syrian hamster embryo (SHE) cells, Assay Type: Cell transformation, clonal assay, Assay Code: CTC+, Evaluation Type: Evaluation A (Pre-1980)",active; positive
CNNC,mutagenic call,[2],active; positive
same,mutagenic call,"Species/Cell Type: Escherichia coli polA (W3119 vs P3478), Assay Type: Rec-assay, DNA effects (bacterial DNA repair), Assay Code: RE1T, Evaluation Type: Evaluation A (Pre-1980)",no conclusion
same,mutagenic call,[7],active; positive
same,mutagenic call,[8],no conclusion
same,mutagenic call,[6],no conclusion
same,call,[3],active; positive
same,mutagenic call,[9],active; positive
same,mutagenic call,"Species/Cell Type: Saccharomyces cerevisiae, Assay Type: Mitotic recombination or gene conversion, Assay Code: YEHT, Evaluation Type: Evaluation A (Pre-1980)",no conclusion
same,mutagenic call,[10],inactive; negative
same,mutagenic call,"Species/Cell Type: Salmonella typhimurium, Assay Type: Forward and reverse gene mutation, body fluid assay, Assay Code: BFU-, Evaluation Type: Evaluation A (Pre-1980)",inactive; negative
same,mutagenic call,[4],active; positive
same,mutagenic call,"Species/Cell Type: Syrian hamster embryo (SHE) cells, Assay Type: Cell transformation, clonal assay, Assay Code: CTCT, Evaluation Type: Evaluation A (Pre-1980)",no conclusion
COP(=S)(Oc1cc(Cl)c(Br)cc1Cl)c1ccccc1 (configuration not stated),mutagenic call,"Species/Cell Type: Nonhuman, Assay Type: Sister-chromatid exchange (SCE) in vitro, Assay Code: SC2+, Evaluation Type: Evaluation B (Post-1980)",active; positive
Cc1csc(NNC=O)n1,mutagenic call,"Species/Cell Type: Escherichia coli WP2, Assay Type: Tryptophan reverse gene mutation, Assay Code: WP2-, Evaluation Type: Evaluation A (Pre-1980)",inactive; negative
same,mutagenic call,"Species/Cell Type: Escherichia coli WP2 UVRA, Assay Type: Tryptophan reverse gene mutation, Assay Code: WPU-, Evaluation Type: Evaluation A (Pre-1980)",inactive; negative
CN(C)CCc1c[nH]c2cccc(OP(=O)(O)O)c12,mutagenic call,[8],no conclusion
C=CCCCCCC=CCC#CC#CC=CC,mutagenic call,[11],no conclusion
O=C(O)c1ccc(C(=O)O)cc1,mutagenic call,"Species/Cell Type: Syrian hamster embryo (SA7/SHE) cells, Assay Type: Cell transformation, viral enhanced, Assay Code: CT7-, Evaluation Type: Evaluation A (Pre-1980)",inactive; negative
C[C@]12CC[C@@H]3c4ccc(O)cc4CC[C@H]3[C@@H]1CC[C@@H]2O,mutagenic call,"Species/Cell Type: Human lymphocytes, Assay Type: Sister-chromatid exchange (SCE) in vitro, Assay Code: SCL-*, Activation: With metabolic activation, Evaluation Type: Evaluation B (Post-1980)",inactive; negative
same,mutagenic call,"Species/Cell Type: Human lymphocytes, Assay Type: Sister-chromatid exchange (SCE) in vitro, Assay Code: SCL-, Evaluation Type: Evaluation B (Post-1980)",inactive; negative
same,mutagenic call,"Species/Cell Type: Human, Assay Type: Sister-chromatid exchange (SCE) in vitro, Assay Code: SC1-, Evaluation Type: Evaluation B (Post-1980)",inactive; negative
same,mutagenic call,[12],active; positive
same,call,[3],active; positive
same,mutagenic call,[11],no conclusion
same,mutagenic call,"Species/Cell Type: Rat, Sex: Male, Assay Type: Sperm morphology, Assay Code: SPA+, Evaluation Type: Evaluation A (Pre-1980)",active; positive
Cc1cc(Cc2ccc(N)c(C)c2)ccc1N,call,[3],active; positive
C/C=C/c1cn([C@H]2C[C@H](O)[C@@H](CO)O2)c(=O)[nH]c1=O,mutagenic call,"Species/Cell Type: Human, Assay Type: Sister-chromatid exchange (SCE) in vitro, Assay Code: SC1+D, Dose Response: With dose response, Evaluation Type: Evaluation B (Post-1980)",active; positive
NNCCc1ccccc1,mutagenic call,"Species/Cell Type: Human, Sex: Male, Assay Type: Sperm morphology, Assay Code: SPHT, Evaluation Type: Evaluation A (Pre-1980)",no conclusion
same,mutagenic call,"Species/Cell Type: Nonhuman, Assay Type: Sister-chromatid exchange (SCE) in vivo, Assay Code: SC3+, Evaluation Type: Evaluation B (Post-1980)",active; positive
Oc1ccc(N=Nc2ccccc2)cc1,mutagenic call,[10],inactive; negative
CNc1ccc(Cl)cc1C(=O)c1ccccc1,mutagenic call,[13],no conclusion
CN(C)P(=O)(N(C)C)N(C)C,mutagenic call,[1],active; positive
same,mutagenic call,[5],active; positive
same,mutagenic call,"Species/Cell Type: Mammalian polychromatic erythrocytes, Assay Type: Micronucleus test, chromosome aberrations, Assay Code: MNT+, Evaluation Type: Evaluation A (Pre-1980)",active; positive
same,mutagenic call,[12],active; positive
same,call,[3],active; positive
same,mutagenic call,"Species/Cell Type: Nonhuman, Assay Type: Sister-chromatid exchange (SCE) in vitro, Assay Code: SC2+D*, Activation: With metabolic activation, Dose Response: With dose response, Evaluation Type: Evaluation B (Post-1980)",active; positive
same,mutagenic call,"Species/Cell Type: Rabbit, Sex: Male, Assay Type: Sperm morphology, Assay Code: SPR+, Evaluation Type: Evaluation A (Pre-1980)",active; positive
same,mutagenic call,"Species/Cell Type: Rodents, Sex: Male, Assay Type: Dominant lethal test, Assay Code: DLT+, Evaluation Type: Evaluation A (Pre-1980)",active; positive
same,mutagenic call,"Species/Cell Type: Tradescantia species, Assay Type: Gene mutation, Assay Code: TRM+D, Dose Response: With dose response, Evaluation Type: Evaluation A (Pre-1980)",active; positive
Cc1ccc(C(C)C)c(O)c1,mutagenic call,[14],inactive; negative
same,mutagenic call,"Species/Cell Type: Drosophila melanogaster, Assay Type: Sex-linked recessive lethal gene mutation, Assay Code: SRLT, Evaluation Type: Evaluation A (Pre-1980)",no conclusion
S=C1SSC2=NCCN12,mutagenic call,"Species/Cell Type: Bacillus subtilis (H17 vs M45), Assay Type: Rec-assay, spot test, DNA effects (bacterial DNA repair), Assay Code: REW+, Evaluation Type: Evaluation A (Pre-1980)",active; positive
same,mutagenic call,"Species/Cell Type: Human lymphocytes, Assay Type: Sister-chromatid exchange (SCE) in vitro, Assay Code: SCL+, Evaluation Type: Evaluation B (Post-1980)",active; positive
same,mutagenic call,[15],active; positive
CCCCN(CC(=O)O)N=O,mutagenic call,[13],no conclusion
O=S(O)(O)=S,mutagenic call,[14],inactive; negative
[Cl-].[Cl-].[Cl-].[Ru+3],mutagenic call,"Species/Cell Type: Bacillus subtilis (H17 vs M45), Assay Type: Rec-assay, spot test, DNA effects (bacterial DNA repair), Assay Code: REW-, Evaluation Type: Evaluation A (Pre-1980)",inactive; negative
C=CC(=O)c1ccc2c(c1)OCO2,mutagenic call,[13],no conclusion
Cc1ccc(N)cc1O,mutagenic call,[8],no conclusion
CN(C)S(=O)(=O)N(SC(F)(Cl)Cl)c1ccccc1,mutagenic call,"Species/Cell Type: Bacillus subtilis (H17 vs M45), Assay Type: Rec-assay, spot test, DNA effects (bacterial DNA repair), Assay Code: REWT, Evaluation Type: Evaluation A (Pre-1980)",no conclusion
same,mutagenic call,"Species/Cell Type: Saccharomyces cerevisiae, Assay Type: Mitotic recombination or gene conversion, Assay Code: YEC-, Evaluation Type: Evaluation A (Pre-1980)",inactive; negative
CCN(CC)c1ccc2c(-c3ccc(C(=O)O)cc3C(=O)[O-])c3ccc(=[N+](CC)CC)cc-3oc2c1,mutagenic call,"Species/Cell Type: Mammalian polychromatic erythrocytes, Assay Type: Micronucleus test, chromosome aberrations, Assay Code: MNT-, Evaluation Type: Evaluation B (Post-1980)",inactive; negative
same,mutagenic call,[9],active; positive
Cc1cccc(O)c1,mutagenic call,"Species/Cell Type: Allium cepa, Assay Type: Chromosome aberrations, Assay Code: ALCT, Evaluation Type: Evaluation A (Pre-1980)",no conclusion
same,mutagenic call,"Species/Cell Type: Human lymphocytes, Assay Type: Sister-chromatid exchange (SCE) in vitro, Assay Code: SCLT, Evaluation Type: Evaluation B (Post-1980)",no conclusion
same,mutagenic call,[15],active; positive
same,mutagenic call,"Species/Cell Type: Nonhuman, Assay Type: Sister-chromatid exchange (SCE) in vivo, Assay Code: SC3T, Evaluation Type: Evaluation B (Post-1980)",no conclusion
